Bounds are passed on as bounds.

As usually defined, the IC50 is the concentration needed to halve the response being measured. Higher therefore signals lower potency.

The assay addresses T1, Human ATX protein (Homo sapiens, UniProt Q13822).
T1 construct: made in house
Nature of the assay: ATX biochemical FRET assay with FS-3 substrate. The note with it: FS-3 2 μM, ATX 1.0 μg/mL, room temperature 2 hours, fluorescence 485/538 nm. The text has this:
ATX (Autotaxin) is a 125 KDa glycoprotein with lysophospholipase D (LPLD) activity that generates the bioactive lipid lysophosphatidic acid (LPA) from lysophosphatidylcholine (LPC). The ATX biochemical assay utilizes a FRET (fluorescence resonance energy transfer) technology platform. The fluorescence signal of FRET substrate FS-3 is quenched due to intra-molecular FRET of a fluorophore to a non-fluorescing quencher (Ferguson, C. G., et al., Org Lett. 2006 May 11; 8(10): 2023-2026, which is incorporated by reference in its entirety). ATX catalyzes the hydrolysis of the substrate which separates the dabsyl quencher from the fluorescein reporter, which becomes fluorescent. The reaction is monitored by a SpectraMax M5 (Molecular Devices, Sunnyvale, Calif.) with at excitation wavelength 485 nm and emission wavelength […].
Fatty acid free-BSA (Sigma A8806): 10 mg/ml, in H2O, stored at 4° C.
2×ATX assay buffer: 100 mM Tris, 280 mM NaCl, 10 mM KCl, 2 mM CaCl2, 2 mM MgCl2, pH 7.4.
Human ATX protein: expressed and purified in house. Stored at −80° C.
Substrate FS-3 (Echelon, L-2000): 100 μg in 77.74 μL H2O (1 mM stock), stored at −20° C.
384-well flat bottom plates—Corning #3575.
Compound dilution—All compounds were provided at 10 mM in 100% DMSO. In the first well, 2 μL of 10 mM compound was added to 78 μL of DMSO (1:40 dilution). In subsequent wells 3-fold dilution (total 10 dilutions) were performed.
1×ATX assay buffer was made up with a final concentration of 1 mg/mL fatty acid free-BSA using 2×ATX assay buffer, 10 mg/ml fatty acid free-BSA and ddH2O.
ATX protein was diluted with 1×ATX assay buffer to a concentration of 1.32 μg/mL (1.32×). 38 μL was added per well to the assay plate. The final concentration of ATX in the reaction as 1.0 μg/mL.
2 μL per well of compounds was transferred to provide the desired concentration. The plate was centrifuged, then incubated at room temperature for 30 minutes on the shaker.
FS-3 was diluted with 1×ATX assay buffer to a concentration of FS-3 of 10 μM (5×). Then, 10 μL was added per well to the assay plate. The final concentration of FS-3 in the reaction was 2 μM. The plate was centrifuged. The plate was kept shaking at room temperature for 2 hours. Because FS-3 substrate is light sensitive, plates were kept covered and protected from light.
Fluorescence was measured using SpectraMax M5 (excitation at 485 nm/emission at 538 nm, top read).
`CC[C@H]1CC[C@@H](Oc2ccc3cc(C(C)N4C5CCCC4CC(C(=O)O)C5)ccc3c2C(F)(F)F)CC1` (relative stereo) [Example 175, 9-(1-(6-((cis-4-ethylcyclohexyl)oxy)-5-(trifluoromethyl)naphthalen-2-yl)ethyl)-9-azabicyclo[3.3.1]nonane-3-carboxylic acid] had an IC50 not above 100 nM.
The result for `CC[C@H]1CC[C@@H](Oc2ccc3cc(C(C)N4C5CCC4CC(C(=O)O)C5)ccc3c2C(F)(F)F)CC1` (relative stereo) [Example 176, 8-(1-(6-((cis-4-ethylcyclohexyl)oxy)-5-(trifluoromethyl)naphthalen-2-yl)ethyl)-8-azabicyclo[3.2.1]octane-3-carboxylic acid] reads not above 100 nM; that for `CCC(c1ccc2c(C(F)(F)F)c(O[C@H]3CC[C@@H](C(F)(F)F)CC3)ccc2c1)N1C2CCCC1CC(C(=O)O)C2` (relative stereo) [Example 177, 9-(1-(6-((cis-4-trifluoromethylcyclohexyl)oxy)-5-(trifluoromethyl)naphthalen-2-yl)propyl)-9-azabicyclo[3.3.1]nonane-3-carboxylic acid], not above 100 nM.
`CCC(c1ccc2c(C(F)(F)F)c(O[C@H]3CC[C@@H](C(F)(F)F)CC3)ccc2c1)N1C2CCC1CC(C(=O)O)C2` (relative stereo) [Example 178, 8-(1-(6-((cis-4-trifluoromethylcyclohexyl)oxy)-5-(trifluoromethyl)naphthalen-2-yl)propyl)-8-azabicyclo[3.2.1]octane-3-carboxylic acid] gave a half-maximal inhibitory concentration (IC50) not above 100 nM.
`CCC(c1ccc2c(C(F)(F)F)c(O[C@H]3CC[C@@H](CC)CC3)ccc2c1)N1C2CCCC1CC(C(=O)O)C2` (relative stereo) [Example 179, 9-(1-(6-((cis-4-ethylcyclohexyl)oxy)-5-(trifluoromethyl)naphthalen-2-yl)propyl)-9-azabicyclo[3.3.1]nonane-3-carboxylic acid] showed a 50% inhibitory concentration (IC50) not above 100 nM.
The result for `CCC(c1ccc2c(C(F)(F)F)c(O[C@H]3CC[C@@H](CC)CC3)ccc2c1)N1C2CCC1CC(C(=O)O)C2` (relative stereo) [Example 180, 8-(1-(6-((cis-4-ethylcyclohexyl)oxy)-5-(trifluoromethyl)naphthalen-2-yl)propyl)-8-azabicyclo[3.2.1]octane-3-carboxylic acid] reads not above 100 nM.
The result for `CC[C@H]1CC[C@@H](Oc2ccc3cc(C(C)N4C5CCCC4CC(C(=O)O)C5)ccc3c2Cl)CC1` (relative stereo) [Example 182, 9-(1-(6-((cis-4-ethylcyclohexyl)oxy)-5-chloronaphthalen-2-yl)ethyl)-9-azabicyclo[3.3.1]nonane-3-carboxylic acid] reads not above 100 nM; that for `C[C@H]1CC[C@@H](Oc2ccc3cc(CN4C5CCCC4CC(C(=O)O)C5)ccc3c2Cl)CC1` (relative stereo) [Example 183, 9-((5-Chloro-6-((cis-4-methylcyclohexyl)oxy)naphthalen-2-yl)methyl)-9-azabicyclo[3.3.1]nonane-3-carboxylic acid], not above 250 nM; that for `CC[C@H]1CC[C@@H](Oc2ccc3cc(C(C)N4C5CCC4CC(C(=O)O)C5)ccc3c2Cl)CC1` (relative stereo) [Example 184, 8-(1-(5-Chloro-6-((cis-4-ethylcyclohexyl)oxy)naphthalen-2-yl)ethyl)-8-azabicyclo[3.2.1]octane-3-carboxylic acid], not above 100 nM.
On to `CC[C@H]1CC[C@@H](Oc2ccc3cc(CN4C5CCC4CC(C(=O)O)C5)ccc3c2Cl)CC1` (relative stereo) [Example 185, 8-((5-Chloro-6-((cis-4-ethylcyclohexyl)oxy)naphthalen-2-yl)methyl)-8-azabicyclo[3.2.1]octane-3-carboxylic acid], for which the IC50 is not above 100 nM.
To `C[C@H](c1ccc2c(C(F)(F)F)c(O[C@H]3CC[C@@H](C(F)(F)F)CC3)ccc2c1)N1C2CCCC1CC(C(=O)O)C2` (single isomer, unassigned) [Example 89] belongs not above 100 nM.
To `C[C@@H](c1ccc2c(C(F)(F)F)c(O[C@H]3CC[C@@H](C(F)(F)F)CC3)ccc2c1)N1C2CCCC1CC(C(=O)O)C2` (single isomer, unassigned) [Example 90] belongs not above 100 nM.
The result for `CC[C@@H](c1ccc2c(C(F)(F)F)c(O[C@H]3CC[C@@H](C)CC3)ccc2c1)N1C2CCC1CC(C(=O)O)C2` (single isomer, unassigned) [Example 233, 8-((s)-1-(6-((cis-4-methylcyclohexyl)oxy)-5-(trifluoromethyl)naphthalen-2-yl)propyl)-8-azabicyclo[3.2.1]octane-3-carboxylic acid] reads not above 100 nM; that for `CC[C@H]1CC[C@@H](Oc2ccc3cc([C@@H](C)N4C5CCCC4CC(C(=O)O)C5)ccc3c2Cl)CC1` (single isomer, unassigned) [Example 238], not above 100 nM; that for `C[C@H](c1ccc2c(Cl)c(O[C@H]3CC[C@@H](C(F)(F)F)CC3)ccc2c1)N1C2CCCC1CC(C(=O)O)C2` (single isomer, unassigned) [Example 240], not above 100 nM.
`C[C@H](c1ccc2c(Cl)c(O[C@H]3CC[C@@H](C(F)(F)F)CC3)ccc2c1)N1C2CCC1CC(C(=O)O)C2` (single isomer, unassigned) [Example 242] came in with a 50% inhibitory concentration (IC50) not above 100 nM.
Turning to `CC[C@@H](c1ccc2c(Cl)c(O[C@H]3CC[C@@H](CC)CC3)ccc2c1)N1C2CCCC1CC(C(=O)O)C2` (single isomer, unassigned) [Example 249], the 50% inhibitory concentration (IC50) is not above 100 nM.
To `CC[C@H](c1ccc2c(C(F)(F)F)c(O[C@H]3CC[C@@H](C(F)(F)F)CC3)ccc2c1)N1C2CCC1CC(C(=O)O)C2` (single isomer, unassigned) [Example 287] belongs not above 100 nM.
For `CC[C@@H](c1ccc2c(C(F)(F)F)c(O[C@H]3CC[C@@H](C(F)(F)F)CC3)ccc2c1)N1C2CCC1CC(C(=O)O)C2` (single isomer, unassigned) [Example 288], the half-maximal inhibitory concentration (IC50) is not above 250 nM.
Compound `CC[C@H]1CC[C@@H](Oc2ccc3cc([C@@H](C)N4C5CCC4CC(C(=O)O)C5)ccc3c2C(F)(F)F)CC1` (single isomer, unassigned) [Example 289] had an IC50 not above 100 nM.
To `CC[C@H]1CC[C@@H](Oc2ccc3cc([C@H](C)N4C5CCC4CC(C(=O)O)C5)ccc3c2C(F)(F)F)CC1` (single isomer, unassigned) [Example 290] belongs not above 100 nM.
The result for `CC[C@H]1CC[C@@H](Oc2ccc3cc([C@@H](C)N4C5CCCC4CC(C(=O)O)C5)ccc3c2C(F)(F)F)CC1` (single isomer, unassigned) [Example 291] reads not above 100 nM.
To `CC[C@H]1CC[C@@H](Oc2ccc3cc([C@H](C)N4C5CCCC4CC(C(=O)O)C5)ccc3c2C(F)(F)F)CC1` (single isomer, unassigned) [Example 292] belongs not above 100 nM; to `CC[C@H](c1ccc2c(C(F)(F)F)c(O[C@H]3CC[C@@H](CC)CC3)ccc2c1)N1C2CCC1CC(C(=O)O)C2` (single isomer, unassigned) [Example 293], not above 500 nM.
In the case of `CC[C@@H](c1ccc2c(C(F)(F)F)c(O[C@H]3CC[C@@H](CC)CC3)ccc2c1)N1C2CCC1CC(C(=O)O)C2` (single isomer, unassigned) [Example 294], the half-maximal inhibitory concentration (IC50) is not above 100 nM.
To `CC[C@H](c1ccc2c(C(F)(F)F)c(O[C@H]3CC[C@@H](C(F)(F)F)CC3)ccc2c1)N1C2CCCC1CC(C(=O)O)C2` (single isomer, unassigned) [Example 295] belongs not above 250 nM.

The record behind these values is patent US9944666B2, “Compounds that are S1P modulating agents and/or ATX modulating agents” (BIOGEN MA INC., priority 2012, dated 2018).
